Earlier results, collected in patent EP1085805B1, “USE OF AT LEAST ONE ACID FROM THE CITRIC ACID CYCLE COMBINED WITH GLYCERINE AS A PESTICIDE” (Biolink Technologies AG, priority 1998, dated 1999).

SMILES | LD50 Wert Ratte oral [mg/kg Körpergewicht]
Cl[C@H]1[C@H](Cl)[C@@H](Cl)[C@@H](Cl)[C@H](Cl)[C@H]1Cl [Lindan] | 88
ClC1=C(Cl)[C@]2(Cl)[C@@H]3[C@@H]4C[C@@H]([C@H]5O[C@@H]45)[C@@H]3[C@@]1(Cl)C2(Cl)Cl [Dieldrin] | 56
